The results in this text go back to patent US10675602B2, “Spray-drying process” (Bend Research, Inc., priority 2009, dated 2020).

This data set in a line: Room temperature solubility in methanol. The data set is classed as physicochemical. Particulars: room temperature (20° C. to 30° C.).

`CCC(=O)O[C@]1(C(=O)SCF)[C@H](C)C[C@H]2[C@@H]3C[C@H](F)C4=CC(=O)C=C[C@]4(C)[C@@]3(F)[C@@H](O)C[C@@]21C` [Active Agent 1, S-(fluoromethyl) 6α,9-difluoro-11β,17-dihydroxy-16α-methyl-3-oxoandrosta-1,4-diene-17β-carbothioate, 17-propionate] gave a solubility in methanol of 0.3 wt %.
